According to patent US11773086B2, “Fungal modulators” (TRUSTEES OF BOSTON UNIVERSITY, priority 2020, dated 2023):

Key:
[1] = test system: C. albicans CaCi-17 efflux; experiment: Nile red accumulation (flow cytometry) in CaCi-17; assay type: cell-based, Candida albicans; conditions: CaCi-17 and its cdr1Δ/cdr1Δ mutant
Experimental: FIG. 9A depicts checkerboard assays as described in FIG. 2B and performed with isolates of C. albicans. CaCi-2 and CaCi-17 represent early and late clinical isolates in which FLC resistance evolved over time. Growth was measured at 24 hours using OD600 and normalized to a no drug control well (see color bar). FIG. 9B depicts dose response assays conducted in YPD medium with a C. albicans parental strain, and strains with gain of function mutations in TAC1 as indicated. FLC was tittered in a two-fold dilution on the x-axis in the absence and presence of 50 μM azoffluxin. Growth was measured at 24 hours using OD600 and normalized to a no drug control well (see color bar). […] FIGS. 9D and 9E depict the intracellular concentrations of FLC and azoffluxin measured after treatment (combo treatment at 6.25 μM azoffluxin and 8 μg/mL FLC) for 1 hour by LC-MS. […] Significance was determined by an unpaired student t-test of each combination to the respective compound alone treatment, (*) indicates a p-value<0.05 and (**) indicates a p-value<0.01.
Cellular efflux was determined by measuring Nile red accumulation, as previously described. […] To quantify fluorescence, a CytoFlex Flow Cytometer (Beckman Coulter) was used. […] Each sample was run using the CytExpert Software until ˜20,000 events had been recorded. […]

[2] = test system: FLC-resistant Candida auris; experiment: Checkerboard (dose-response matrix) with fluconazole, FICI; assay type: cell-based
Experimental: Generally, the synergy is measured by determining the fractional inhibitory concentration (FIC) value of the combination. […] FIC values for both agents in a particular square/well are calculated in this way followed by determination of the FIC index (sum of the FICs of each agent in the particular square/well).
Compound potency was assessed alone by dose response assays or in combination with another compound by dose-response matrixes in 96-well plates, or 384-well, flat-bottom, microtiter plates (Corning) as previously described. Plates were incubated at 30° C. for the indicated time period. Growth was quantified by measuring OD600 and corrected for medium background. All strains were assessed in biological duplicate experiments with technical duplicates. Growth was normalized to untreated controls and plotted as a heat map using Java TreeView 1.1.6r4. For dose-response matrixes fractional inhibitory concentration index at 90% growth inhibition (FICI90) was calculated as previously described. The fluconazole Etest susceptibility assay was performed as previously described. Briefly, 200 μL of 5×10^6 cells/mL were plated on YPD agar (1%) plates with either with 50 μM azoffluxin or containing DMSO.

C=C(C)C[C@@H](O)COc1cc2c(cc1C1(c3cc4c(cc3OC[C@H](O)CC(=C)C)OCO4)C(=O)Nc3cc(F)ccc31)OCO2 [CMLD012336]
Nile red accumulation [1]: increase in Nile red accumulation
interaction with fluconazole ([2]; Clade III isolate B12037 lacking Erg11 V125A/F126L and Mrr1 N647T): potent synergistic interaction
fractional inhibitory concentration index (FICI) ([2]; combination with fluconazole, C. auris Ci6684 (Erg11 Y132F), <0.5 = synergy): 0.25
FICI ([2]; fractional inhibitory concentration index for enhancement of FLC activity in FLC-resistant Candida auris, <0.5 strong synergy, 2 = no synergy): 0.130
potentiation of fluconazole across C. auris clades ([2]; isolates of the four major clades, Clade III the exception): potentiated fluconazole in multiple isolates from three of the four major clades
